Consider nine molecules from ChEMBL document CHEMBL5143672, “New diarylpentanoids and chalcones as potential antimicrobial adjuvants” (2022).

Assay [1] concerns Salmonella enterica subsp. enterica serovar Typhimurium. In words: Inhibition of Multidrug resistance efflux pump in Salmonella enterica serovar typhimurium SL1344 (SE03) assessed as relative fluorescence index using ethidium bromide as substrate at 25 uM by fluorescence based analysis.
The subject of assay [2] is Staphylococcus epidermidis. In words: Antibacterial activity against Staphylococcus epidermidis ATCC 12228 assessed as inhibition zone incubated for 24 hrs by disc diffusion method. The assay is classed as functional.
The test system of assay [3] is Escherichia coli. In words: Antibacterial activity against Escherichia coli ATCC 25922 assessed as inhibition zone incubated for 24 hrs by disc diffusion method. The assay is classed as functional.
Assay [4] has as its system Staphylococcus aureus. In words: Antibacterial activity against Staphylococcus aureus ATCC 25923 assessed as inhibition zone incubated for 24 hrs by disc diffusion method. The assay is classed as functional.
The next assay has as its system Klebsiella pneumoniae. In words: Antibacterial activity against Klebsiella pneumoniae ATCC 13883 assessed as inhibition zone incubated for 24 hrs by disc diffusion method. The assay is classed as functional.
The test system of assay [5] is Pseudomonas aeruginosa. In words: Antibacterial activity against Pseudomonas aeruginosa ATCC 27853 assessed as inhibition zone incubated for 24 hrs by disc diffusion method. The assay is classed as functional.
In assay [6] the test system is Candida albicans. In words: Antifungal activity against Candida albicans ATCC 10231 assessed as inhibition of fungal growth incubated for 18 hrs by optical density based analysis. The assay is classed as functional.
The test system of assay [7] is Salmonella enterica subsp. enterica serovar Typhimurium. In words: Inhibition of Multidrug resistance efflux pump in Salmonella enterica serovar typhimurium SL1344 (SE03) assessed as relative fluorescence index using ethidium bromide as substrate at 50 uM by fluorescence based analysis.
Assay [8] can be described thus: Inhibition of quorum sensing system in Chromobacterium violaceum CV026 assessed as reduction in pigment production co-cultured with Sphingomonas paucimobilis Ezf 10-17 for 24 to 48 hrs. The settings on record: time 24-48 hrs.
Assay [9] relates to Enterococcus faecalis. In words: Antimicrobial adjuvant activity against Enterococcus faecalis B3/101 assessed as potentiation of vancomycin-induced antibacterial activity by measuring fold reduction in vancomycin MIC at 64 ug/ml by broth microdilution method. The assay is classed as functional. The settings on record: dose 64 µg/ml.
A short description of assay [10]: Inhibition of quorum sensing system in Chromobacterium violaceum wild type 85 assessed as reduction in pigment production incubated for 24 to 48 hrs. To be noted: time 24-48 hrs.
The subject of assay [11] is Enterococcus faecalis. In words: Antibacterial activity against Enterococcus faecalis ATCC 29212 assessed as inhibition of bacterial growth by broth microdilution method. The assay is classed as functional.
The subject of the next assay is Serratia marcescens. In words: Inhibition of quorum sensing system in Serratia marcescens AS-1 assessed as reduction in pigment production incubated for 24 to 48 hrs. To be noted: time 24-48 hrs.
Assay [12] concerns Staphylococcus aureus. In words: Antibacterial activity against Staphylococcus aureus ATCC 25923 assessed as inhibition of bacterial growth by broth microdilution method. The assay is classed as functional.
The subject of assay [13] is Staphylococcus aureus. In words: Inhibition of biofilm formation in Staphylococcus aureus ATCC 25923 at 100 uM incubated for 48 hrs by crystal violet staining based analysis. The assay is classed as functional.
The subject of a further assay is Salmonella typhimurium. In words: Antibacterial activity against Salmonella enterica serovar typhimurium SL1344 (SE03) assessed as inhibition of bacterial growth by broth microdilution method. The assay is classed as functional, Salmonella enterica subsp. enterica serovar Typhimurium.
The test system of assay [14] is Escherichia coli. In words: Antibacterial activity against Escherichia coli ATCC 25922 assessed as inhibition of bacterial growth by broth microdilution method. The assay is classed as functional.
A further assay relates to Trichophyton rubrum. In words: Antifungal activity against Trichophyton rubrum FF5 assessed as inhibition of fungal growth by broth microdilution method. The assay is classed as functional.
The test system of assay [15] is Staphylococcus aureus. In words: Antibacterial activity against methicillin and ofloxacin-resistant Staphylococcus aureus 272123 assessed as inhibition of bacterial growth by broth microdilution method. The assay is classed as functional.
For assay [16], the system named is Staphylococcus aureus. In words: Inhibition of biofilm formation in Staphylococcus aureus 272123 at 100 uM incubated for 48 hrs by crystal violet staining based analysis. The assay is classed as functional.
Assay [17] relates to Candida albicans. In words: Antifungal activity against Candidia albicans ATCC 10231 assessed as inhibition of fungal growth by broth microdilution method. The assay is classed as functional.
In assay [18] the test system is Pseudomonas aeruginosa. In words: Antibacterial activity against Pseudomonas aeruginosa ATCC 27853 assessed as inhibition of bacterial growth by broth microdilution method. The assay is classed as functional.
Assay [19] concerns Escherichia coli. In words: Antimicrobial adjuvant activity against ESBL-producing Escherichia coli SA/2 assessed as potentiation of cefotaxime-induced antibacterial activity by measuring fold reduction in cefotaxime MIC at 64 ug/ml by broth microdilution method. The assay is classed as functional. The settings on record: dose 64 µg/ml.
Assay [20] in a line: Inhibition of Multidrug resistance efflux pump in Staphylococcus aureus 272123 assessed as relative fluorescence index using ethidium bromide as substrate at 50 uM by fluorescence based analysis.
A further assay has as its system Aspergillus fumigatus. In words: Antifungal activity against Aspergillus fumigatus ATCC 204305 assessed as inhibition of fungal growth by broth microdilution method. The assay is classed as functional.
A short description of assay [21]: Inhibition of Multidrug resistance efflux pump in Staphylococcus aureus 272123 assessed as relative fluorescence index using ethidium bromide as substrate at 25 uM by fluorescence based analysis.
For another assay, the system named is Enterobacter cloacae. In words: Antibacterial activity against Enterobacter cloacae 45301 assessed as inhibition zone incubated for 24 hrs by agar plate method. The assay is classed as functional.
Another assay relates to Micrococcus luteus. In words: Antibacterial activity against Micrococcus luteus 28001 assessed as inhibition zone incubated for 24 hrs by agar plate method. The assay is classed as functional.

Converted amounts (≈) assume the structure as drawn.

Regarding `N#CC(C#N)=NNc1cccc(Cl)c1`, in assay [1], the RFU turned out to be 0.3.

`COc1cccc(/C=C2\CCc3ccccc3C2=O)c1`: the “inhibition zone (IZ)” value in [2] is on record as 15 mm; in the assay with Escherichia coli [3] it was 17 mm; in the assay with Staphylococcus aureus [4], 18 mm; in the assay with Klebsiella pneumoniae it was 18 mm; in the assay on Pseudomonas aeruginosa [5], 18 mm.

As for `COc1cc(OC)c2c(c1)OC/C(=C\c1ccccc1)C2=O`, the minimal inhibitory concentration (MIC) in the assay with Candida albicans [6] was determined as 25 µM (≈ 7.41 µg/mL).

In the case of `COc1ccccc1/C=C1\CCc2ccccc2C1=O`, the RFU amounted to 1.32 in assay [7] and 0.88 in [20]. The Activity in assay [8] worked out at 48 mm; in assay [10], 0 mm; with Serratia marcescens, 0 mm. Moreover, the “fold change (FC)” value in the assay with Enterococcus faecalis [9] and with Escherichia coli [19] was 2 each time. Further, the minimal inhibitory concentration (MIC) is > 64 µg/mL in the assay on Enterococcus faecalis [11]; > 64 µg/mL with Staphylococcus aureus [12]; > 64 µg/mL in the assay on Salmonella typhimurium; > 64 µg/mL in the assay on Escherichia coli [14]; > 128 µg/mL in the assay with Trichophyton rubrum; > 64 µg/mL in the assay on Staphylococcus aureus [15]. For the same molecule, the minimal inhibitory concentration (MIC) with Candida albicans [17] is > 128 µg/mL; with Pseudomonas aeruginosa [18], > 64 µg/mL; with Aspergillus fumigatus it was > 128 µg/mL. The inhibition at 100 µM worked out at 0% with Staphylococcus aureus [13] and 83.3% in the assay on Staphylococcus aureus [16].

For the molecule `COc1cccc(/C=C2\COC/C(=C\c3cccc(OC)c3OC)C2=O)c1OC`, the RFU in [7] worked out at 0.12; in assay [20] it was 0.44. In addition, the Activity amounted to 31 mm in assay [8], 0 mm in [10] and 0 mm in the assay with Serratia marcescens. The figures for the “fold change (FC)” value in the assay with Enterococcus faecalis [9] and with Escherichia coli [19] were 32 and 16, respectively. In addition, the minimal inhibitory concentration (MIC) in the assay with Enterococcus faecalis [11] was > 64 µg/mL; in the assay on Staphylococcus aureus [12] it was > 64 µg/mL; in the assay with Salmonella typhimurium, > 64 µg/mL; in the assay with Escherichia coli [14], > 64 µg/mL; in the assay with Trichophyton rubrum, > 128 µg/mL; in the assay on Staphylococcus aureus [15], > 64 µg/mL. In addition, the MIC in the assay with Candida albicans [17] was > 128 µg/mL; with Pseudomonas aeruginosa [18] it was > 64 µg/mL; with Aspergillus fumigatus it was > 128 µg/mL. Also, the inhibition at 100 µM with Staphylococcus aureus [13] was 0%; with Staphylococcus aureus [16], 46.9%.

As for `COC(=O)[C@H]1[C@H]2C[C@@H]3c4[nH]c5cc(OC)ccc5c4CCN3C[C@H]2C[C@@H](OC(=O)c2cc(OC)c(OC)c(OC)c2)[C@@H]1OC` [RESERPINE], the RFU in assay [21] worked out at 0.35. Besides, the inhibition at 100 µM came to 22.3% with Staphylococcus aureus [13] and 72.1% in the assay with Staphylococcus aureus [16].

For the molecule `COc1cc(OC)c(OC)cc1/C=C1\CSc2ccccc2C1=O`, the RFU in assay [7] was -0.02; in assay [20] it was 0.36. The Activity (in assay [8]; in assay [10]; in the assay with Serratia marcescens) was 0 mm each time. In addition, in the assay with Enterococcus faecalis [9], the “fold change (FC)” value is 2. The MIC in the assay with Enterococcus faecalis [11] was > 64 µg/mL; in the assay with Staphylococcus aureus [12], > 64 µg/mL; in the assay with Salmonella typhimurium, > 64 µg/mL; in the assay on Escherichia coli [14] it was > 64 µg/mL; with Trichophyton rubrum, > 128 µg/mL; with Staphylococcus aureus [15], > 64 µg/mL. Besides, the minimum inhibitory concentration (MIC) in the assay with Candida albicans [17] was > 128 µg/mL; in the assay with Pseudomonas aeruginosa [18], > 64 µg/mL; in the assay on Aspergillus fumigatus it was > 128 µg/mL. The inhibition at 100 µM was found to be 0% with Staphylococcus aureus [13] and 74.1% with Staphylococcus aureus [16].

With `O=C1/C(=C/c2ccccc2Br)CC/C1=C\c1ccccc1Br`, the “inhibition zone (IZ)” value in the assay on Enterobacter cloacae was found to be 10 mm.

As to `COc1cc(/C=C2\CCC/C(=C\c3cc(OC)c(OC)c(OC)c3)C2=O)cc(OC)c1OC`, the “inhibition zone (IZ)” value in the assay with Micrococcus luteus is on record as 9 mm; with Enterobacter cloacae, 10 mm.
